Laboratory results: patent publication US9399646B2 (Genentech, Inc., priority 2010, dated 2016)

How the values were obtained:
MCF-7 cells = assay: Breast cancer cell viability assay (CellTiter-Glo, 5 days); type: cell-based; settings: 5 days' compound exposure; for IC50: Homo sapiens, MCF7, 120 h
How it was run: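 Eleven-point semilog compound series, final 0.3-0.000003 μM, added to overnight-adhered MCF-7 cells (320/well; RPMI, 10% FBS, 20 mM HEPES) for 5 days. Viability read by CellTiter-Glo luminescence, background from medium without cells subtracted, expressed relative to untreated cells.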

ER-α in MCF-7 cells = molecular target: T1, ER-α in MCF-7 cells (Homo sapiens, UniProt P03372); assay: Breast cancer cell ER-α in cell western assay (SP1); type: cell-based; parameters: endogenous in cells; host or cells: MCF-7; settings: 4 or 24 hr post compound addition; for Emax: MCF7, SP1 antibody, read-out: ER-α In Cell Western Assay (SP1) Max Response; for DC50: SP1 antibody, read-out: ER-α In Cell Western Assay (SP1) IC50
T1 sequence (P03372 1-595): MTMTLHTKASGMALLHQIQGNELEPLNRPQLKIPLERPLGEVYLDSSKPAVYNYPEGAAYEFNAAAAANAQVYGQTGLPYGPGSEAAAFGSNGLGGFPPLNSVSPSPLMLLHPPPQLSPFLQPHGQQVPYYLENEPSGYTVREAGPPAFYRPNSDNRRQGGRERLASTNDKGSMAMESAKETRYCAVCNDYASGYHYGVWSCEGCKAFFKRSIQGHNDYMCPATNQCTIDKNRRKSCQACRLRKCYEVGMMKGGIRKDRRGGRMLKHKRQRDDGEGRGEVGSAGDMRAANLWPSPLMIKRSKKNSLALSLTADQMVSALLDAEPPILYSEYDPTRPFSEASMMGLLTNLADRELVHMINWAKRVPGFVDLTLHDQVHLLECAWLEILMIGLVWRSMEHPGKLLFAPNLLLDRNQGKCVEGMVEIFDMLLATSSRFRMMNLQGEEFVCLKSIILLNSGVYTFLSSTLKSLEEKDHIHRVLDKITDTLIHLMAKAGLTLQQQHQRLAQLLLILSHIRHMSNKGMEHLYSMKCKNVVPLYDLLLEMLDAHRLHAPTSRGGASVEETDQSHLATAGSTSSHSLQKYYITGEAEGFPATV
How it was run: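 Percent remaining ER: SP1 immunofluorescence normalized to DRAQ5 nuclear stain, compared with untreated controls. Treatment lasted 4 or 24 hr across 0.3–0.000003 μM final in MCF-7.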

Row | Compound | MCF7 Viability Assay Max Response (MCF-7 cells) | IC50 (MCF-7 cells) | Emax (ER-α in MCF-7 cells) | DC50 (ER-α in MCF-7 cells)
1 | CC/C(=C(/c1ccc(/C=C/C(=O)O)cc1)c1ccc2[nH]ncc2c1)c1cccc(Oc2ncccn2)c1 [Compound 363, (E)-3-(4-((E)-1-(1H-Indazol-5-yl)-2-(3-(pyrimidin-2-yloxy)phenyl)but-1-en-1-yl)phenyl)acrylic acid] | ++ (++ = a single % value ≧ 40%) | ≤ 100 nM | ≥ 40% | ≤ 100 nM
2 | CC/C(=C(/c1ccc(/C=C/C(=O)O)cc1)c1ccc2[nH]ncc2c1)c1cccc(Oc2ccncn2)c1 [Compound 364, (E)-3-(4-((E)-1-(1H-Indazol-5-yl)-2-(3-(pyrimidin-4-yloxy)phenyl)but-1-en-1-yl)phenyl)acrylic acid] | ++ (++ = a single % value ≧ 40%) | ≤ 100 nM | ≥ 40% | ≤ 100 nM
3 | CC/C(=C(/c1ccc(/C=C/C(=O)O)cc1)c1ccc2[nH]ncc2c1)c1cccc(Oc2cccnc2)c1 [Compound 365, (E)-3-(4-((E)-1-(1H-Indazol-5-yl)-2-(3-(pyridin-3-yloxy)phenyl)but-1-en-1-yl)phenyl)acrylic acid] | ++ (++ = a single % value ≧ 40%) | ≤ 100 nM | ≥ 40% | ≤ 100 nM
4 | CC/C(=C(/c1ccc(/C=C/C(=O)O)cc1)c1ccc2[nH]ncc2c1)c1cccc(Oc2ccncc2)c1 [Compound 366, (E)-3-(4-((E)-1-(1H-Indazol-5-yl)-2-(3-(pyridin-4-yloxy)phenyl)but-1-en-1-yl)phenyl)acrylic acid] | ++ (++ = a single % value ≧ 40%) | ≤ 100 nM | ≥ 40% | ≤ 100 nM
5 | CC/C(=C(/c1ccc(/C=C/C(=O)O)cc1)c1ccc2[nH]ncc2c1)c1cccc(Oc2ccccc2F)c1 [Compound 367, (E)-3-(4-((E)-2-(3-(2-Fluorophenoxy)phenyl)-1-(1H-indazol-5-yl)but-1-en-1-yl)phenyl)acrylic acid] | ++ (++ = a single % value ≧ 40%) | ≤ 100 nM | ≥ 40% | ≤ 100 nM
6 | CC/C(=C(/c1ccc(/C=C/C(=O)O)cc1)c1ccc2[nH]ncc2c1)c1cccc(Oc2ccccc2C)c1 [Compound 368, (E)-3-(4-((E)-1-(1H-Indazol-5-yl)-2-(3-(o-tolyloxy)phenyl)but-1-en-1-yl)phenyl)acrylic acid] | ++ (++ = a single % value ≧ 40%) | ≤ 100 nM | ≥ 40% | ≤ 100 nM
7 | CC/C(=C(/c1ccc(/C=C/C(=O)O)cc1)c1ccc2[nH]ncc2c1)c1cccc(Oc2cncnc2)c1 [Compound 369, (E)-3-(4-((E)-1-(1H-Indazol-5-yl)-2-(3-(pyrimidin-5-yloxy)phenyl)but-1-en-1-yl)phenyl)acrylic acid] | ++ (++ = a single % value ≧ 40%) | > 100 nM | ≥ 40% | ≤ 100 nM
8 | CC/C(=C(/c1ccc(/C=C/C(=O)O)cc1)c1ccc2[nH]ncc2c1)c1cccc(Oc2nccs2)c1 [Compound 370, (E)-3-(4-((E)-1-(1H-Indazol-5-yl)-2-(3-(thiazol-2-yloxy)phenyl)but-1-en-1-yl)phenyl)acrylic acid] | ++ (++ = a single % value ≧ 40%) | ≤ 100 nM | ≥ 40% | ≤ 100 nM
9 | CC/C(=C(/c1ccc(/C=C/C(=O)O)cc1)c1ccc2[nH]ncc2c1)c1cccc(Oc2cnccn2)c1 [Compound 371, (E)-3-(4-((E)-1-(1H-Indazol-5-yl)-2-(3-(pyrazin-2-yloxy)phenyl)but-1-en-1-yl)phenyl)acrylic acid] | ++ (++ = a single % value ≧ 40%) | ≤ 100 nM | ≥ 40% | ≤ 100 nM
10 | CC/C(=C(/c1ccc(/C=C/C(=O)O)cc1)c1ccc2[nH]ncc2c1)c1cccc(Oc2ccncc2C(F)(F)F)c1 [Compound 372, (E)-3-(4-((E)-1-(1H-Indazol-5-yl)-2-(3-((3-(trifluoromethyl)pyridin-4-yl)oxy)phenyl)but-1-en-1-yl)phenyl)acrylic acid] | ++ (++ = a single % value ≧ 40%) | > 100 nM | ≥ 40% | ≤ 100 nM
11 | CC/C(=C(/c1ccc(/C=C/C(=O)O)cc1)c1ccc2[nH]ncc2c1)c1cccc(Oc2ccc(S(C)(=O)=O)cc2)c1 [Compound 373, (E)-3-(4-((E)-1-(1H-Indazol-5-yl)-2-(3-(4-(methylsulfonyl)phenoxy)phenyl)but-1-en-1-yl)phenyl)acrylic acid] | ++ (++ = a single % value ≧ 40%) | ≤ 100 nM | ≥ 40% | ≤ 100 nM
12 | CC/C(=C(/c1ccc(/C=C/C(=O)O)cc1)c1ccc2[nH]ncc2c1)c1cccc(Oc2ccccc2S(C)(=O)=O)c1 [Compound 374, (E)-3-(4-((E)-1-(1H-Indazol-5-yl)-2-(3-(2-(methylsulfonyl)phenoxy)phenyl)but-1-en-1-yl)phenyl)acrylic acid] | ++ (++ = a single % value ≧ 40%) | > 100 nM | ≥ 40% | > 100 nM
13 | CC/C(=C(/c1ccc(/C=C/C(=O)O)cc1)c1ccc2[nH]ncc2c1F)c1cccc(Oc2ccccn2)c1 [Compound 375, (E)-3-(4-((E)-1-(4-Fluoro-1H-indazol-5-yl)-2-(3-(pyridin-2-yloxy)phenyl)but-1-en-1-yl)phenyl)acrylic acid] | ++ (++ = a single % value ≧ 40%) | ≤ 100 nM | ≥ 40% | ≤ 100 nM
14 | CC/C(=C(/c1ccc(/C=C/C(=O)O)cc1)c1ccc2[nH]ncc2c1F)c1cccc(Oc2ncccn2)c1 [Compound 376, (E)-3-(4-((E)-1-(4-Fluoro-1H-indazol-5-yl)-2-(3-(pyrimidin-2-yloxy)phenyl)but-1-en-1-yl)phenyl)acrylic acid] | ++ (++ = a single % value ≧ 40%) | ≤ 100 nM | ≥ 40% | ≤ 100 nM
15 | CC/C(=C(/c1ccc(/C=C/C(=O)O)cc1)c1ccc2[nH]ncc2c1F)c1cccc(Oc2cnccn2)c1 [Compound 377, (E)-3-(4-((E)-1-(4-Fluoro-1H-indazol-5-yl)-2-(3-(pyrazin-2-yloxy)phenyl)but-1-en-1-yl)phenyl)acrylic acid] | ++ (++ = a single % value ≧ 40%) | ≤ 100 nM | ≥ 40% | ≤ 100 nM
16 | CC/C(=C(/c1ccc(/C=C/C(=O)O)cc1)c1ccc2[nH]ncc2c1F)c1cccc(Oc2ccc(S(C)(=O)=O)nc2)c1 [Compound 378, (E)-3-(4-((E)-1-(4-Fluoro-1H-indazol-5-yl)-2-(3-((6-(methylsulfonyl)pyridin-3-yl)oxy)phenyl)but-1-en-1-yl)phenyl)acrylic acid] | ++ (++ = a single % value ≧ 40%) | ≤ 100 nM | ≥ 40% | ≤ 100 nM
17 | CC/C(=C(/c1ccc(/C=C/C(=O)O)cc1)c1ccc2[nH]ncc2c1)c1cccc(Oc2ccc(S(C)(=O)=O)cn2)c1 [Compound 379, (E)-3-(4-((E)-1-(1H-Indazol-5-yl)-2-(3-((5-(methylsulfonyl)pyridin-2-yl)oxy)phenyl)but-1-en-1-yl)phenyl)acrylic acid] | ++ (++ = a single % value ≧ 40%) | ≤ 100 nM | ≥ 40% | ≤ 100 nM
18 | CC/C(=C(/c1ccc(/C=C/C(=O)O)cc1)c1ccc2[nH]ncc2c1)c1cccc(Oc2ccc(S(C)(=O)=O)nc2)c1 [Compound 380, (E)-3-(4-((E)-1-(1H-Indazol-5-yl)-2-(3-((6-(methylsulfonyl)pyridin-3-yl)oxy)phenyl)but-1-en-1-yl)phenyl)acrylic acid] | ++ (++ = a single % value ≧ 40%) | > 100 nM | ≥ 40% | ≤ 100 nM
19 | CC/C(=C(/c1ccc(/C=C/C(=O)O)cc1)c1ccc2[nH]ncc2c1)c1cccc(Oc2ccc(C(F)(F)F)cn2)c1 [Compound 381, (E)-3-(4-((E)-1-(1H-Indazol-5-yl)-2-(3-((5-(trifluoromethyl)pyridin-2-yl)oxy)phenyl)but-1-en-1-yl)phenyl)acrylic acid] | ++ (++ = a single % value ≧ 40%) | ≤ 100 nM | ≥ 40% | ≤ 100 nM
20 | CC/C(=C(/c1ccc(/C=C/C(=O)O)cc1)c1ccc2[nH]ncc2c1)c1cccc(Oc2ccc(C)nc2)c1 [Compound 382, (E)-3-(4-((E)-1-(1H-Indazol-5-yl)-2-(3-((6-methylpyridin-3-yl)oxy)phenyl)but-1-en-1-yl)phenyl)acrylic acid] | ++ (++ = a single % value ≧ 40%) | ≤ 100 nM | ≥ 40% | ≤ 100 nM
